Data set [1] concerns the target Cytochrome P450 2D6 (Homo sapiens, UniProt P10635).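 Also: CYP2D6 member of a cytochrome P450 panel assay.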
Data set [2] addresses Cytochrome P450 2C9 (Homo sapiens, UniProt P11712).
Data set [3] concerns HEK293. The data set is described as follows: cells. In kind it is functional, cell-based. Conditions: Homo sapiens.
Data set [4] deals with Tumor necrosis factor (Homo sapiens, UniProt P01375). Description: analog potency on TNFa NF-kB signaling – cell-based, revised, SAR follow-up (AID 2337). Format: functional.
For data set [5], the target named is Nucleotide-binding oligomerization domain-containing protein 2 (Homo sapiens, UniProt Q9HC29). The data set is described as follows: inhibition of NOD2-driven NF-kB reporter – cell-based, luminescence, uHTS, HEK293 (AID 1566). In kind it is functional.
The target in data set [6] is Nucleotide-binding oligomerization domain-containing protein 1 (Homo sapiens, UniProt Q9Y239). Description: blockers of NOD1 pathway activity – revised, SAR follow-up (AID 2333). In kind it is functional.
Data set [7] relates to HEK293. Description: cells. In kind it is functional, cell-based. Conditions: Homo sapiens. This is another data set of the same source.
Data set [8] has as its system HEK293. Description: cells. Conditions: Homo sapiens.
Data set [9] relates to HEK293. Description: NOD2 signaling inhibitors in MDP-stimulated cells, cell-based, uHTS, luminescence (AID 2001). Format: functional. Conditions: Homo sapiens.
In data set [10] the test system is HEK293. Description: cells. In kind it is functional, cell-based. The note with it: Homo sapiens. This is another data set of the same source.
The target of data set [11] is Induced myeloid leukemia cell differentiation protein Mcl-1 (Homo sapiens, UniProt Q07820). Format: functional.
The subject of data set [12] is HEK293. Description: inhibition of NOD1-driven NF-kB reporter – cell-based, luminescence, uHTS, primary screen (AID 1578). Format: functional. Conditions: Homo sapiens.
A short description of data set [13]: HEK-293T viability loss after treatment – luminescence, T-cell screen hits, cytotoxicity control for TCR NF-kB inhibitor project, dose response (AID 489026).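 Also: cells exposed to compound about 14 hours before the viability readout.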 Format: functional, cell-based.
In data set [14] the target is CAAX prenyl protease 2 (Saccharomyces cerevisiae S288c, UniProt Q03530). Format: biochemical.
The target of data set [15] is T1, Calpain-2 catalytic subunit (Sus scrofa, UniProt P43367).
T1 sequence (P43367 whole entry): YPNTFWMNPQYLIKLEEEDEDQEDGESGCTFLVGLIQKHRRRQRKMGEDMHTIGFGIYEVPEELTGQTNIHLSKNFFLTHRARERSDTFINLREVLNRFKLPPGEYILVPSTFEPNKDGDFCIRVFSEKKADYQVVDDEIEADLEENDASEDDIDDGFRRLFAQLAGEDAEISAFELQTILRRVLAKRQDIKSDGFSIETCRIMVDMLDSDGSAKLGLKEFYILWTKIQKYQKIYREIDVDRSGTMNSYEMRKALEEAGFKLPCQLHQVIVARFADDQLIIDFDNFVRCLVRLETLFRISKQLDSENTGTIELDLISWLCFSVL
The data set is described as follows: m-calpain protease blockers, concentration series – biochemical, fluorogenic peptide substrate, dose response (AID 1420). In kind it is functional.

Data set [16] concerns the target Genome polyprotein (dengue virus type 2, UniProt P29990). The data set is described as follows: flavivirus cap methylation enzyme inhibition – biochemical, confirmation dose response, primary screen (AID 588689). Format: functional.
Data set [17] deals with Trypsin (Sus scrofa, UniProt P00761). The data set is described as follows: trypsin protease activity blockade – biochemical, quenched peptide fluorescence, cherry-pick, selectivity assay for Rce1 protease inhibitor project, dose response (AID 488789).
Data set [18] has as its target CAAX prenyl protease 2 (Homo sapiens, UniProt Q9Y256). Description: inhibition of Ras-converting CAAX protease Rce1 – biochemical, yeast membranes, quenched-peptide fluorescence, cherry-pick, dose response (AID 588849).
Data set [19] deals with T2, Caspase-3 (Homo sapiens, UniProt P42574).
T2 sequence (P42574 whole entry): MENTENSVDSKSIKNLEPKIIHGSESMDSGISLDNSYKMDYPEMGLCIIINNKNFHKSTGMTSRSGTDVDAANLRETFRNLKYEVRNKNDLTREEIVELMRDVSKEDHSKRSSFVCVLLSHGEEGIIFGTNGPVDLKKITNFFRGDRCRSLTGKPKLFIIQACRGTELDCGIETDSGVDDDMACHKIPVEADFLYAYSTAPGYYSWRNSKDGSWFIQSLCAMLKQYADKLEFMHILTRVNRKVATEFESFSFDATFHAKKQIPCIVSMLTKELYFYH
Format: functional.

In data set [20] the target is T3, Sentrin-specific protease 7 (Homo sapiens, UniProt Q9BQF6).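 Also: Luminescence-based dose-response confirmation of ultra-high-throughput screening hits, measuring inhibition of SENP7.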
T3 sequence (Q9BQF6 whole entry): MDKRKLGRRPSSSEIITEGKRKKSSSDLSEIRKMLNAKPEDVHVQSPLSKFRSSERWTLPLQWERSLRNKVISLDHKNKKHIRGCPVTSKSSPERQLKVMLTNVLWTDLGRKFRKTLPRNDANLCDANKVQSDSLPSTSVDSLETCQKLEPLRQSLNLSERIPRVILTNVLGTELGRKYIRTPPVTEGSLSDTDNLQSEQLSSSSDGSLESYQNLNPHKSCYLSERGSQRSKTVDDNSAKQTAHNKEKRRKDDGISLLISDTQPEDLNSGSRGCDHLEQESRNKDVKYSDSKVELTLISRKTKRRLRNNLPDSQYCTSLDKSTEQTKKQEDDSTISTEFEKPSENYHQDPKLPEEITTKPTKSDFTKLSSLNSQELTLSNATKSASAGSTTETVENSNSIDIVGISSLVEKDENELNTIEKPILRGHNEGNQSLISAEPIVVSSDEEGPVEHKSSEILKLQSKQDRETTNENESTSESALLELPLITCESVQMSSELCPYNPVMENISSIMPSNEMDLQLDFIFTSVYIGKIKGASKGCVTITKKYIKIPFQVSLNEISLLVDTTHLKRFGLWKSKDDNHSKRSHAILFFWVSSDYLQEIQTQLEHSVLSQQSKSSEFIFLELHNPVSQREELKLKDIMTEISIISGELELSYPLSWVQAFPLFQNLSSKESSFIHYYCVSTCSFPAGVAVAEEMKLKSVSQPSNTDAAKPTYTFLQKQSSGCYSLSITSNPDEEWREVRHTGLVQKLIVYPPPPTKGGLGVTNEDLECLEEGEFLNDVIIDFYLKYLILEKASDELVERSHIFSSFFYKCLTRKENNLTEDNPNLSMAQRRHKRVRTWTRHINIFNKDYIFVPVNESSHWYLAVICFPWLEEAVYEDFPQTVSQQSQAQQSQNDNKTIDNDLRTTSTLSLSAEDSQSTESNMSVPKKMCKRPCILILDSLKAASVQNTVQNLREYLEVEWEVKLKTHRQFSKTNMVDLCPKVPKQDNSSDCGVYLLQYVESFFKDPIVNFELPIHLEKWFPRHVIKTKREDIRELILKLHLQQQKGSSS
In kind it is functional.

In data set [21] the target is FAD-linked sulfhydryl oxidase ALR (Homo sapiens, UniProt P55789). Description: ALR-catalysed DTT oxidation blockers – biochemical, H2O2 detection, luminescence, cherry-pick, dose response (AID 493248).
In data set [22] the target is T4, Sentrin-specific protease 6 (Homo sapiens, UniProt Q9GZR1).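 Also: Luminescence-based dose-response confirmatory assay of SENP6 inhibition, following up an ultra-high-throughput screen.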
T4 sequence (Q9GZR1 whole entry): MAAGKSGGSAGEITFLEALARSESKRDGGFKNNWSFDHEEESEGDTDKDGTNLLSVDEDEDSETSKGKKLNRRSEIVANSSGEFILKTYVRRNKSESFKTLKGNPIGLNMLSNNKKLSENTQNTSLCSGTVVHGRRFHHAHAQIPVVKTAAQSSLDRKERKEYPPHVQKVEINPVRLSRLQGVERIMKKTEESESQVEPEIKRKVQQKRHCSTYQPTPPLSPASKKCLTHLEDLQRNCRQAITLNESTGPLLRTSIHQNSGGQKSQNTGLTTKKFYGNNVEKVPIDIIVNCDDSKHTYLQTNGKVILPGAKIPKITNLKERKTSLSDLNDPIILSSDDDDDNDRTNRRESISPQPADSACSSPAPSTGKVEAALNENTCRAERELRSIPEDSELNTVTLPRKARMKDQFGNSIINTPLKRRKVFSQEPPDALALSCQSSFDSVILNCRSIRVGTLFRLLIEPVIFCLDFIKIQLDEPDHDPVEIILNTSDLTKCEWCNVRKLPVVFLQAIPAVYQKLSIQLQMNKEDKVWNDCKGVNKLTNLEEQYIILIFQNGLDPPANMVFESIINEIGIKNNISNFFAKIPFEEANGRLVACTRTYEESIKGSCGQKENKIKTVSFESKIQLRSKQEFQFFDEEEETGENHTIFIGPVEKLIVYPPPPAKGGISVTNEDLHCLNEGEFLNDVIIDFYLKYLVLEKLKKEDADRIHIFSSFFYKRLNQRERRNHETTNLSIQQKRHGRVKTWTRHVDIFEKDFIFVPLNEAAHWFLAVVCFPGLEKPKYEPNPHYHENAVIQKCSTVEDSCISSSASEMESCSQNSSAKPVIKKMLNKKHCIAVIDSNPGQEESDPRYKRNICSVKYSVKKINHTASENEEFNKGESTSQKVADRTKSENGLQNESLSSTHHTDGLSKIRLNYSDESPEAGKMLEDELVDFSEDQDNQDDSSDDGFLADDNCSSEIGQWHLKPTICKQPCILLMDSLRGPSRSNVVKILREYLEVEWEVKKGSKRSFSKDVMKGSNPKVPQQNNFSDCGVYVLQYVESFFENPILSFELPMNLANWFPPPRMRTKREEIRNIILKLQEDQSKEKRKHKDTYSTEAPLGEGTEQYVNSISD
In kind it is functional.

Data set [23] has as its target T5, Sentrin-specific protease 8 (Homo sapiens, UniProt Q96LD8).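 Also: luminescence read-out of SENP8 inhibition, dose-response confirmation following an ultra-high-throughput screen.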
T5 sequence (Q96LD8 whole entry): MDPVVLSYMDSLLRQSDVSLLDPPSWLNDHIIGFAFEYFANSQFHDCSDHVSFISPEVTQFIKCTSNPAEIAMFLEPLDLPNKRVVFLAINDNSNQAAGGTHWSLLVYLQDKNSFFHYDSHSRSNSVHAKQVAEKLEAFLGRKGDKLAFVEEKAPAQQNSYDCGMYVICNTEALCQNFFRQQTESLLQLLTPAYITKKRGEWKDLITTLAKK
Format: functional.

Data set [24] has as its target CAAX prenyl protease 1 (Saccharomyces cerevisiae S288c, UniProt P47154). Description: yeast CAAX protease Ste24 inhibition – biochemical, S. cerevisiae, plate reader, cherry-pick, dose response (AID 488815).

Activity calls are given as the source filed them. Bounds are passed on as bounds.

Cytochrome P450 2C9, sequence (P11712 whole entry): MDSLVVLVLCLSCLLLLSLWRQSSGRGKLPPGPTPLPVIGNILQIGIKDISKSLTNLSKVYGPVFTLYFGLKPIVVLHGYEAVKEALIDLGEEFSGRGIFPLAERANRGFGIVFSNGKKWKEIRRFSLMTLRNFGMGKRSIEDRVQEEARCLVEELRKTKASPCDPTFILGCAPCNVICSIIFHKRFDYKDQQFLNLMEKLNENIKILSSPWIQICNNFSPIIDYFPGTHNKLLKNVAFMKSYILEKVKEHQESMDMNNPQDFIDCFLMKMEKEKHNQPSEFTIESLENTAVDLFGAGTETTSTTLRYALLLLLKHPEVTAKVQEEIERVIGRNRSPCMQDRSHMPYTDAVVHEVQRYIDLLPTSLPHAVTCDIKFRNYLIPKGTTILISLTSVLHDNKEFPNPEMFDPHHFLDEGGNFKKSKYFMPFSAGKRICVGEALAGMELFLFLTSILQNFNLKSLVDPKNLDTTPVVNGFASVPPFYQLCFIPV
Nucleotide-binding oligomerization domain-containing protein 1, sequence (Q9Y239 whole entry, the tested form may be a part): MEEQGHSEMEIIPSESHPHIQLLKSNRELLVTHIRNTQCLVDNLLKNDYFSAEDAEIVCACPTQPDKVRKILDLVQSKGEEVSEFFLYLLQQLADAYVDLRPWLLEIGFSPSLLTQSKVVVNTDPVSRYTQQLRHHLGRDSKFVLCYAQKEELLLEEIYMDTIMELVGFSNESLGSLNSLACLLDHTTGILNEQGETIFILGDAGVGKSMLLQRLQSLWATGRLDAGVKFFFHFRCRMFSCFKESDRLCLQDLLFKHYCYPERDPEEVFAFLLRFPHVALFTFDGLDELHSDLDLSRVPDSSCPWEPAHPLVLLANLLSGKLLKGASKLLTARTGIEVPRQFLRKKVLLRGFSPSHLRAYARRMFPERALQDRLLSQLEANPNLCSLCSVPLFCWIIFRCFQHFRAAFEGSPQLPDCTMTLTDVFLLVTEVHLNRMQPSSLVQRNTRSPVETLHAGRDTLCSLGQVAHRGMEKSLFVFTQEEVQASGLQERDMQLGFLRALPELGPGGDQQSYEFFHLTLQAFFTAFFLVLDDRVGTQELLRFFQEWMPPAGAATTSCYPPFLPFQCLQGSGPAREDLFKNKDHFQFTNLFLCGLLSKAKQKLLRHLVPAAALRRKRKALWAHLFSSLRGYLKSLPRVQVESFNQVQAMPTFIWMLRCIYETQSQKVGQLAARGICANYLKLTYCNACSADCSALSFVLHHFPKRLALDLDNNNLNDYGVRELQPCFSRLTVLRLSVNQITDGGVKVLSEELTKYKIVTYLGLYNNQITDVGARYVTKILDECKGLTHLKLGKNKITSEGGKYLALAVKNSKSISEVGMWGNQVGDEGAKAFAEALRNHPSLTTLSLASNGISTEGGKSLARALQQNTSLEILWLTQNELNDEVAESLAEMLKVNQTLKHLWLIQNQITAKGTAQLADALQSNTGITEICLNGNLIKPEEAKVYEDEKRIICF
Cytochrome P450 2D6, sequence (P10635 whole entry): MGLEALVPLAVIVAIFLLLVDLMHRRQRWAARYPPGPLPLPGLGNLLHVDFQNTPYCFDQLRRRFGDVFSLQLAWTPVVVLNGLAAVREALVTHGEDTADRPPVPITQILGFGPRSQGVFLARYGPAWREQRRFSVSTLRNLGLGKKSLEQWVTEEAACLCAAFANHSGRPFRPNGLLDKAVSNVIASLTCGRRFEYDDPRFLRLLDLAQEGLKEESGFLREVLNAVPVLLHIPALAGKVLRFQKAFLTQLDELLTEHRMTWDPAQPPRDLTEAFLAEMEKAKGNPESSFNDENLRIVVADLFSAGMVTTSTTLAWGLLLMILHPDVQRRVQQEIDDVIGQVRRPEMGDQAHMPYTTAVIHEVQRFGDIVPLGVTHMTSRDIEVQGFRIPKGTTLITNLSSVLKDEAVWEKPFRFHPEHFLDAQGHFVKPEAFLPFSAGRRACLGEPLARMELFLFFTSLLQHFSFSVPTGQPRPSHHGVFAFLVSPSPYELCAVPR
CAAX prenyl protease 1, sequence (P47154 whole entry): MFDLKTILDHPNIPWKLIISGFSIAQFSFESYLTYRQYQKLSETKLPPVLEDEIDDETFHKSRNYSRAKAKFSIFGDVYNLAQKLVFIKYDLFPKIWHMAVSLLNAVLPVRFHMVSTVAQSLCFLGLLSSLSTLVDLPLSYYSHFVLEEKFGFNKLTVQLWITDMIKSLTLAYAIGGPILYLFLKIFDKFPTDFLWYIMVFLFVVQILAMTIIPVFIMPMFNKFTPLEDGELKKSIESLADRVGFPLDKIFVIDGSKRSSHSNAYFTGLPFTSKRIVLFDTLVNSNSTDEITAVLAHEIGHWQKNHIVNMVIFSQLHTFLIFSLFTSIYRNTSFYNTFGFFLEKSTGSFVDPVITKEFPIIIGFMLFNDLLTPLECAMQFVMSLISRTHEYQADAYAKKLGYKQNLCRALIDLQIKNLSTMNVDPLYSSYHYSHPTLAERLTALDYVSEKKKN
Genome polyprotein, sequence (P29990 2492-3391 limits assumed): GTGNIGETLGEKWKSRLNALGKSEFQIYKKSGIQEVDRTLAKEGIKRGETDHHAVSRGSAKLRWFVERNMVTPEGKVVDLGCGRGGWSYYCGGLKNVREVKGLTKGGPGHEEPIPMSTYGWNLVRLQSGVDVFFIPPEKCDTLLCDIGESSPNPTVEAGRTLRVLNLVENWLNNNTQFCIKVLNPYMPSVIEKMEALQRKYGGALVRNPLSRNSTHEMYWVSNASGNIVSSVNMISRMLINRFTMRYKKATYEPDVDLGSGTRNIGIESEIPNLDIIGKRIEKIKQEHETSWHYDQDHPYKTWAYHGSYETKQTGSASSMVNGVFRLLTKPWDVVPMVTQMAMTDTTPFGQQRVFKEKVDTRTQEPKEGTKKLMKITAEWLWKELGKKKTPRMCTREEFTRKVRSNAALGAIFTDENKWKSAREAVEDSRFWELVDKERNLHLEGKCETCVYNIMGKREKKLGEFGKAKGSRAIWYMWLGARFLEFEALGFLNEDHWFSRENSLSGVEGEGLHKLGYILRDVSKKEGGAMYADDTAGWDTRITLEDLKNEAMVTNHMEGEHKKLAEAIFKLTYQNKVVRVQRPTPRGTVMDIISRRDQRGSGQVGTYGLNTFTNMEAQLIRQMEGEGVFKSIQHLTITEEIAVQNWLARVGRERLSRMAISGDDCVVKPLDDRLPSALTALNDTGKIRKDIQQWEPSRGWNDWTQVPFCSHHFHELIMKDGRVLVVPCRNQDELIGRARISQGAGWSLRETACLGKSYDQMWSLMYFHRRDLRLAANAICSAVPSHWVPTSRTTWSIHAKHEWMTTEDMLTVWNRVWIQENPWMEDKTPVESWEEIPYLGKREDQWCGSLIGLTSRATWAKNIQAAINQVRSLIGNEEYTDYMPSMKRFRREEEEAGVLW
CAAX prenyl protease 2 (Homo sapiens, UniProt Q9Y256), sequence (Q9Y256 whole entry): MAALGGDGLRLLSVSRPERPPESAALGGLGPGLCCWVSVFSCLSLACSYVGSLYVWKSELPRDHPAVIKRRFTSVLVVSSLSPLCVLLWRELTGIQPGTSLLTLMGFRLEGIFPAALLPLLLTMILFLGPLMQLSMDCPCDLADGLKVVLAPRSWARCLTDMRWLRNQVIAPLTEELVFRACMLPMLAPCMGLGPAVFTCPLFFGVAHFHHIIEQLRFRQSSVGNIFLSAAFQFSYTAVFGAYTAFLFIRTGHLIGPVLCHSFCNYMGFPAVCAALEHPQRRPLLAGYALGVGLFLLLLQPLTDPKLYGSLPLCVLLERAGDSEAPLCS
FAD-linked sulfhydryl oxidase ALR, sequence (P55789 whole entry): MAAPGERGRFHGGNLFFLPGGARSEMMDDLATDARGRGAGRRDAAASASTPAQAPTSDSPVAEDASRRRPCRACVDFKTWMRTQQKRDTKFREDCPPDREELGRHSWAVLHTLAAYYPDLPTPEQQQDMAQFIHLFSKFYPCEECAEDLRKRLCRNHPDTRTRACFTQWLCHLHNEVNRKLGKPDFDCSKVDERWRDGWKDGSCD
Induced myeloid leukemia cell differentiation protein Mcl-1, sequence (Q07820 whole entry): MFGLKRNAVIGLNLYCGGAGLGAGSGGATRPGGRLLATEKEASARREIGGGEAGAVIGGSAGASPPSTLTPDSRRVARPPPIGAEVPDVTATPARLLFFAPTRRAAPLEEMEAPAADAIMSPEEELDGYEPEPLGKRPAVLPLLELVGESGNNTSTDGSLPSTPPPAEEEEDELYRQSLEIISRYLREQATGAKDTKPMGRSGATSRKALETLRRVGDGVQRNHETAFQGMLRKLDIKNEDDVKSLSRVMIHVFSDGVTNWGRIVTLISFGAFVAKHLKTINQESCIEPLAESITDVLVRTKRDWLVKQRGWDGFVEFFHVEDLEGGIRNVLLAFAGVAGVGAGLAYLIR
Tumor necrosis factor, sequence (P01375 whole entry, the tested form may be a part): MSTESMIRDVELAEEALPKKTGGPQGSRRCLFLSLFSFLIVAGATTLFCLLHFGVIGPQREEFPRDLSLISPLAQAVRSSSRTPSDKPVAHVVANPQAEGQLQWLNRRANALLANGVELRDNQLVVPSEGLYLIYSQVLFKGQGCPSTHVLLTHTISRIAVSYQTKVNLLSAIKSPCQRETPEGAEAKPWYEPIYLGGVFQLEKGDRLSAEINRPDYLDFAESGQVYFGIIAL
Trypsin, sequence (P00761 whole entry): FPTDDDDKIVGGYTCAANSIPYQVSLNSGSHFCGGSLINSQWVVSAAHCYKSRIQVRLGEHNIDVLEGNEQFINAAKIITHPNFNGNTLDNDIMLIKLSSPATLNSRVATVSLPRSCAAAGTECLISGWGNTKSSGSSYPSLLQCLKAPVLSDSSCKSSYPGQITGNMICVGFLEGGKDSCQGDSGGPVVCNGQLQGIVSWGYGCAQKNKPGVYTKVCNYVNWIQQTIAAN
CAAX prenyl protease 2 (Saccharomyces cerevisiae S288c, UniProt Q03530), sequence (Q03530 whole entry): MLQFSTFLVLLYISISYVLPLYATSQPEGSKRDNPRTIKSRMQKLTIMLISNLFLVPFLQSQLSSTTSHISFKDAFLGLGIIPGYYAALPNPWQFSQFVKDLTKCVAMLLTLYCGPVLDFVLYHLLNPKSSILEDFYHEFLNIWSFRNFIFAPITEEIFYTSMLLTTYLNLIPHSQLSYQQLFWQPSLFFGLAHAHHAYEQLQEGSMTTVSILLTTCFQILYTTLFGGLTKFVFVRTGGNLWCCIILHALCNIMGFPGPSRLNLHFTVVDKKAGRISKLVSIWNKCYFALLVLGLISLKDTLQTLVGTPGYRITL

Turning to `Nn1c(SCC(=O)N2CCOCC2)nnc1-c1ccccc1Cl`, the results for the AC50 result in data set [1] and in data set [2] were “inconclusive” and 0.0794 µM (inconclusive), respectively.
In the case of `COC(=O)c1ccc2nc(Nc3nc4c(F)cc(F)cc4s3)sc2c1`, the IC50 in data set [3] is > 20 µM (inactive); in data set [4], 0.23 µM (active); in [6] it was 0.429 µM (active); in data set [7], 0.666 µM (active); in [8] it was 9.76 µM (active); in data set [9], 1.92 µM (active). Moreover, the figures for the IC50 in [10], in [11] and in data set [13] were > 20 µM (inactive), 2.8 µM (active) and > 80 µM (inactive), respectively. Further, the EC50 in [5] was 0.3 µM (active); in [12] it was 3.03 µM (active).
`O=C(O)c1ccc(N/N=C/c2cn(Cc3ccccc3F)c3ccccc23)cc1`: the AC50 in [14] is 4.78 µM (active); in data set [17], 13.8 µM (active); in data set [18], 5.18 µM (active); in [21] it was 2.1 µM (active); in data set [24] it was 5.53 µM (active). Moreover, the IC50 in data set [15] is < 0.4 µM (not active); in data set [16] it was 64.1 µM (active); in data set [19], 22.7 µM (active); in [20], 3.24 µM (active); in data set [22], 2.6 µM (active); in data set [23], 2.92 µM (active).

For the origin of these results see ChEMBL document CHEMBL1201862, “PubChem BioAssay data set” (2004).
